Reference: PubChem BioAssay AID588634 (Broad Institute, 2011)
The source made the active and inactive calls.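 The calls were made as follows: active = compounds whose fitted half-maximal toxic concentration is no more than twice their top tested dose; inconclusive = flat fit with 30 to 70% signal loss, or poor fit; inactive = the rest.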

Tested on: not listed separately
Assay: cytotoxicity in NIH-3T3 fibroblasts, dose response, cytotoxicity control for antifungal single agent project, cell-based, Alamar Blue, cherry-pick (AID 588634)
Settings: NIH-3T3 fibroblast viability, Alamar Blue fluorescence, 48 h; at 26 µM (top of the series)

SMILES	activity change, negative = toxicity
CCN1/C(=C/C=C/c2oc3ccc(-c4ccccc4)cc3[n+]2CC)Oc2ccc(-c3ccccc3)cc21	360% (inactive)
CCOC(=O)N1C(=O)C2(CCCCC2)N(c2ccc(C)cc2)C1=S	-0.005% (inactive)
C(C#CCCCCCCCCC[n+]1ccccc1)#CCCCCCCCCC[n+]1ccccc1	-33.3% (inactive)

Tested on: NIH-3T3 fibroblast viability, Alamar Blue fluorescence, 48 h
Assay: as above
Settings: not given

SMILES	AC50 [µM]
CCCCC(=O)NC(c1ccc(N(CC)CC)cc1)c1ccc2cccnc2c1O (stereo not drawn)	1.25
Cc1cc(NC(c2ccc(Cl)cc2)c2ccc3cccnc3c2O)no1 (stereo not drawn)	3.66
O=[N+]([O-])c1ccc(O)c(/C=N/Nc2ccc(Cl)nn2)c1	1.6
COc1cccc(N=Nc2ccc(O)c3ncccc23)c1	0.279
COc1cccc(/C=N/Nc2ncnc3scc(-c4ccccc4)c23)c1O	2.07
O=[N+]([O-])c1cc(CN2CCN(c3ccccc3)CC2)c(O)c2ncccc12	0.109
Oc1c(CN2CCN(c3ccccc3)CC2)cc(Br)c2cccnc12	1.39
CCCCC(=O)NC(c1ccc(Cl)cc1)c1ccc2cccnc2c1O (stereo not drawn)	1.09
Oc1ccc(N=Nc2ccc3c(c2)OCCO3)c2ncccc12	0.702
O=C(Oc1c(Cl)cc(Cl)c2cccnc12)c1ccco1	0.409
CCOc1ccc(N=Nc2ccc(O)c3ncccc23)cc1	0.289
O=C(N/N=C/c1cc2c3c(c1O)CCCN3CCC2)c1ccccc1O	6.37
O=Nc1c(-c2cccc([N+](=O)[O-])c2)nc2ncccn12	9.99
Oc1c(CN2CCN(c3ccc(F)cc3)CC2)cc(Cl)c2cccnc12	1.29
Oc1ccc(N=Nc2ccc3c(c2)OCCO3)c2cccnc12	3.14
Oc1c(C(Nc2nc3ccccc3s2)c2ccco2)ccc2cccnc12 (stereo not drawn)	1.85
Cc1ccc(C(=O)c2coc3c2C(=O)C(=O)c2ccccc2-3)cc1	8.17
O=C(N/N=C/c1c(O)ccc2ccccc12)c1cccc(C(F)(F)F)c1	4.34
CN1CCN(C(c2ccc(C(F)(F)F)cc2)c2ccc3cccnc3c2O)CC1 (stereo not drawn)	0.852
CCCCC(=O)NC(c1ccco1)c1cc(Cl)c2cccnc2c1O (stereo not drawn)	0.705
O=C(Oc1c(Cl)cc(Cl)c2cccnc12)c1cccs1	0.659
C/C(=N\NC(=O)c1cc2ccccc2cc1O)c1ccccn1	1.04
O=c1ccc(N=Nc2ccccc2)ccc1O	1.6
COc1cccc(N=Nc2ccc3cccnc3c2O)c1	0.712
Oc1c(C(Nc2nccs2)c2ccc(C(F)(F)F)cc2)ccc2cccnc12 (stereo not drawn)	1.74
Oc1c(C(c2ccc(Cl)cc2)N2CCCC2)cc(Cl)c2cccnc12 (stereo not drawn)	1.47
O=Cc1ccc(O)c2ncccc12	0.913
CCN(CC)S(=O)(=O)c1cc(OC)ccc1N=Nc1ccc(O)c2ncccc12	0.753
CN1CCN(C(c2ccc(C(F)(F)F)cc2)c2cc(Cl)c3cccnc3c2O)CC1 (stereo not drawn)	1.96
COc1ccc(C)cc1N=Nc1ccc(O)c2ncccc12	0.303
